Laboratory results as given in PubChem BioAssay (NCI).
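Step 1: Grow cells in 96-well plates. Step 2: Expose to compound for 48 hours at 5 concentrations. Step 3: Interpolate endpoints linearly; if unreached, use highest concentration. Abbreviation: GI50, concentration required for 50% inhibition of growth. TGI is the concentration that stops growth completely.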

How the values were obtained:
Assay in all cases: NCI anticancer screen, dose series, 48 h
OVCAR-5 ovarian = tested on: OVCAR-5 ovarian
HOP-62 NSCLC = tested on: HOP-62 NSCLC
CAKI-1 renal = tested on: CAKI-1 renal
NCI-H23 lung = tested on: NCI-H23 lung
NCI-H522 lung = tested on: NCI-H522 lung
MOLT-4 leukemia = tested on: MOLT-4 leukemia
SK-OV-3 ovarian = tested on: SK-OV-3 ovarian
OVCAR-3 ovarian = tested on: OVCAR-3 ovarian
HS 578T breast = tested on: HS 578T breast
DU-145 prostate = tested on: DU-145 prostate

| Structure (SMILES) | TGI (OVCAR-5 ovarian) | TGI (HOP-62 NSCLC) | TGI (CAKI-1 renal) | TGI (NCI-H23 lung) | TGI (NCI-H522 lung) | TGI (MOLT-4 leukemia) | TGI (SK-OV-3 ovarian) | TGI (OVCAR-3 ovarian) | GI50 (CAKI-1 renal) | GI50 (MOLT-4 leukemia) | GI50 (HS 578T breast) | TGI (HS 578T breast) | GI50 (DU-145 prostate) | TGI (DU-145 prostate) | GI50 (OVCAR-5 ovarian) | GI50 (NCI-H23 lung) | GI50 (NCI-H522 lung) | GI50 (SK-OV-3 ovarian) | GI50 (OVCAR-3 ovarian) | GI50 (HOP-62 NSCLC) |
| --- | --- | --- | --- | --- | --- | --- | --- | --- | --- | --- | --- | --- | --- | --- | --- | --- | --- | --- | --- | --- |
| NNC(=O)CNC(=O)c1ccc(Cl)cc1Cl | > 100 µM | > 100 µM | > 100 µM | > 100 µM | > 100 µM | > 100 µM | > 100 µM | > 100 µM |  |  |  |  |  |  |  |  |  |  |  |  |
| O=C1c2ccccc2C(=O)N1CCN(CCN1C(=O)c2ccccc2C1=O)Cn1cccn1 |  | > 100 µM | > 100 µM |  | > 100 µM | > 100 µM | > 100 µM | > 100 µM |  |  |  |  |  |  |  |  |  |  |  |  |
| C=C(C)[C@@H]1CC[C@]2(C(=O)O)CC[C@]3(C)[C@H](CC[C@@H]4[C@@]5(C)C[C@@H](CC#Cc6ccc(C(F)(F)F)cc6)[C@H](O)C(C)(C)[C@@H]5CC[C@]43C)[C@@H]12 |  |  | > 100 µM |  |  | > 100 µM |  |  | 2.63 µM | 2.75 µM | 3.88 µM | > 100 µM | 3.52 µM | > 100 µM |  |  |  |  |  |  |
| CC(=O)c1ccc(OCC(O)CO)cc1 (stereo not drawn) | > 100 µM | > 100 µM | > 100 µM | > 100 µM | > 100 µM | > 100 µM | > 100 µM | > 100 µM |  |  |  |  |  |  |  |  |  |  |  |  |
| Oc1ccc(O)c(-c2cn3ccsc3n2)c1 | 26.5 µM |  | 4.99 µM | 64.3 µM | > 100 µM | 5.42 µM | 51.6 µM | 20.9 µM | 2.18 µM | 2.55 µM | 30.4 µM | 68.7 µM |  |  | 12 µM | 16.9 µM | 4.29 µM | 19.1 µM | 7.4 µM |  |
| CN(Cc1cc(Br)cc(Br)c1O)Cc1cc(Br)cc(Br)c1O | 21.9 µM | 18.1 µM | 12.5 µM | 22.3 µM | 7.14 µM | 36.3 µM |  | 11.2 µM | 0.612 µM | 3.31 µM | 5.24 µM | 47.7 µM | 5.48 µM | 22.2 µM | 6.13 µM | 3.28 µM | 1.73 µM |  | 1.42 µM | 1.74 µM |
| CC1CC(=O)Nc2ccccc2N1C(=O)CN1CCC(CCCCN(C)C)CC1 (stereo not drawn) | > 100 µM | > 100 µM | > 100 µM | > 100 µM | > 100 µM | > 100 µM |  | > 100 µM |  |  |  |  |  |  |  |  |  |  |  |  |
| CC1SC2=NC3=C(c4ccccc4C3=O)C(c3ccc(Cl)cc3)N2C1=O (stereo not drawn) | > 100 µM | > 100 µM | > 100 µM | > 100 µM | 87.8 µM | > 100 µM | > 100 µM | > 100 µM |  |  |  |  |  |  |  |  |  |  |  |  |
| CC1=NOC(=O)/C1=C/c1cccc2ccccc12 | > 100 µM | > 100 µM | > 100 µM | > 100 µM | > 100 µM | > 100 µM | > 100 µM | > 100 µM |  |  |  |  |  |  |  |  |  |  |  |  |
| O=C1CCC2CC(C(=O)c3ccccc3)CCC2CN1 (stereo not drawn) (tested in a mixture with another compound) | > 100 µM | > 100 µM | > 100 µM | > 100 µM | > 100 µM | > 100 µM | > 100 µM | > 100 µM |  |  |  |  |  |  |  |  |  |  |  |  |
| Cc1cccc2c1N(C(=O)/C=C\C(=O)O)C(c1c(C)[nH]c3ccccc13)C2 (stereo not drawn) | > 100 µM | > 100 µM | > 100 µM | > 100 µM | 46.3 µM | > 100 µM | > 100 µM | > 10 µM |  |  |  |  |  |  |  |  |  |  |  |  |
